In brackets after ≈: the same amount, converted by molar mass. Activity calls are given as the source filed them. The rule behind the calls is not given here.
Key:
Rattus norvegicus [1] = experiment: Antiandrogenic activity in immature castrated Hershberger rat model assessed as inhibition of testosterone propionate-induced seminal vesicle growth at 2 mg/kg, po bid for 7 days; format: functional, organism-based; parameters: dose 2 mg/kg
[2] = Oral bioavailability in beagle dog at 10 umol/kg; format: ADME, organism-based, Canis lupus familiaris; settings: in vivo
[3] = Intrinsic clearance in human hepatocytes measured per 10^6 cells
Androgen receptor [4] = biological target: T1, Androgen receptor (Homo sapiens, UniProt P10275); experiment: Inhibition of androgen receptor-mediated cellular downregulation in human LNCAP cells assessed as decrease in nuclear receptor level after 20 to 22 hrs by laser-scanning fluorescence microplate cytometeric analysis; format: cell-based
T1 sequence (P10275 whole entry): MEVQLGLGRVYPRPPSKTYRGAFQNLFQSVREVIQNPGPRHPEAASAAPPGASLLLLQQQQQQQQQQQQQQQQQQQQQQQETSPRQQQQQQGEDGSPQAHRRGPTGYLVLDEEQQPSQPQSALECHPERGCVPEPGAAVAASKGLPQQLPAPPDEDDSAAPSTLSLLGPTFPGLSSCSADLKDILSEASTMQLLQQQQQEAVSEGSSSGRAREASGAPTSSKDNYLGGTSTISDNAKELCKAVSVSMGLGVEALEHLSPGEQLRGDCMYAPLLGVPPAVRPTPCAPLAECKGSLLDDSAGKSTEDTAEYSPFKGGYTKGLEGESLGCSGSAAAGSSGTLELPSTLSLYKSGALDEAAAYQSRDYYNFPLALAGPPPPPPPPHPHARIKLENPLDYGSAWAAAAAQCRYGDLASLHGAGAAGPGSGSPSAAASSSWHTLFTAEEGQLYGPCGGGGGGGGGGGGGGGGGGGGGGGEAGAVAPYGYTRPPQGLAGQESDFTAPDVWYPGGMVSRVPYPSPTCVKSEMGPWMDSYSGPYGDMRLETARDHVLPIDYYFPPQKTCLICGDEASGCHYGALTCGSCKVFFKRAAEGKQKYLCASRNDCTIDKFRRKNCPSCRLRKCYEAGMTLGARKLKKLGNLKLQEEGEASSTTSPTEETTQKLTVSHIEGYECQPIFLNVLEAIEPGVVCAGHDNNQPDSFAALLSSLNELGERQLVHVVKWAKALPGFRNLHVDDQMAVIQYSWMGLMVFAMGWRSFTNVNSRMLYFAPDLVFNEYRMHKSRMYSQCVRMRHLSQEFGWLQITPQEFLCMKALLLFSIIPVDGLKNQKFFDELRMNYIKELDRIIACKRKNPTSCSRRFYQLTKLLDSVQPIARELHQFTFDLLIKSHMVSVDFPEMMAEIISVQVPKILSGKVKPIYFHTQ

[5] = Clearance in beagle dog at 2 umol/kg, iv and 10 umol/kg, po; format: ADME, organism-based, Canis lupus familiaris; settings: in vivo
physchem = settings: phosphate buffer
Androgen receptor [6] = biological target: T2, Androgen receptor (Rattus norvegicus, UniProt P15207); experiment: Binding affinity to rat androgen receptor ligand binding domain by fluorescence polarization assay
T2 sequence (P15207 whole entry): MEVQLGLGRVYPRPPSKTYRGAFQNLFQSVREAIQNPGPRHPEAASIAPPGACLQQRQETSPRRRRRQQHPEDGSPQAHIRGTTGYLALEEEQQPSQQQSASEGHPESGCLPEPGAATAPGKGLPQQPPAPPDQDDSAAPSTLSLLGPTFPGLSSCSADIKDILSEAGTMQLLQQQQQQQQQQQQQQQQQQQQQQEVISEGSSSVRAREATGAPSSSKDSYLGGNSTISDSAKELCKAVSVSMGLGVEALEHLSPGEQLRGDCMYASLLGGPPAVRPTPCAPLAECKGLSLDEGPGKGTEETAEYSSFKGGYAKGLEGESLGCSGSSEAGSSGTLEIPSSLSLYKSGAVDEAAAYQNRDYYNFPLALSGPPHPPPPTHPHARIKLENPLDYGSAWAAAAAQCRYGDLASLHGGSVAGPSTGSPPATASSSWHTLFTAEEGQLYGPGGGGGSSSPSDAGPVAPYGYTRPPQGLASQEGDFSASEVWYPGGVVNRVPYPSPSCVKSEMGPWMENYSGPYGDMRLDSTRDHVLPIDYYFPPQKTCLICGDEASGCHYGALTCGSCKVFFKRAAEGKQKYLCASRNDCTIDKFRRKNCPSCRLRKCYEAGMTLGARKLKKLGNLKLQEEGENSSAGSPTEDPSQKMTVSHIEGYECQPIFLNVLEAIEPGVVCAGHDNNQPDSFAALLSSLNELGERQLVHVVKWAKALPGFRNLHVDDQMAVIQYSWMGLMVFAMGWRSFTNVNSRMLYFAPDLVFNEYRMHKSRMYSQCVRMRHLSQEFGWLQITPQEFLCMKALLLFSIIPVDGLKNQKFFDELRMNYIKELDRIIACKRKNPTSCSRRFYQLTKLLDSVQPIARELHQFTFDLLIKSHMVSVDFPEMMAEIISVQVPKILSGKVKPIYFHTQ

Rattus norvegicus [7] = experiment: Antiandrogenic activity in immature castrated Hershberger rat model assessed as inhibition of testosterone propionate-induced seminal vesicle growth at 50 to 100 mg/kg, po bid for 7 days; format: functional, organism-based
[8] = Fraction unbound in Han Wistar rat plasma by equilibrium dialysis method; format: ADME, cell-free
[9] = Lipophilicity, log D of the compound at pH 7.4; settings: buffer
Androgen receptor [10] = biological target: T1, Androgen receptor; experiment: Displacement of [3H]R1881 from full length androgen receptor in human LNCAP cells; format: cell-based
[11] = biological target: Voltage-gated inwardly rectifying potassium channel KCNH2 (Homo sapiens, UniProt Q12809); experiment: Inhibition of human ERG by IonWorks assay
Voltage-gated inwardly rectifying potassium channel KCNH2, sequence (Q12809 whole entry): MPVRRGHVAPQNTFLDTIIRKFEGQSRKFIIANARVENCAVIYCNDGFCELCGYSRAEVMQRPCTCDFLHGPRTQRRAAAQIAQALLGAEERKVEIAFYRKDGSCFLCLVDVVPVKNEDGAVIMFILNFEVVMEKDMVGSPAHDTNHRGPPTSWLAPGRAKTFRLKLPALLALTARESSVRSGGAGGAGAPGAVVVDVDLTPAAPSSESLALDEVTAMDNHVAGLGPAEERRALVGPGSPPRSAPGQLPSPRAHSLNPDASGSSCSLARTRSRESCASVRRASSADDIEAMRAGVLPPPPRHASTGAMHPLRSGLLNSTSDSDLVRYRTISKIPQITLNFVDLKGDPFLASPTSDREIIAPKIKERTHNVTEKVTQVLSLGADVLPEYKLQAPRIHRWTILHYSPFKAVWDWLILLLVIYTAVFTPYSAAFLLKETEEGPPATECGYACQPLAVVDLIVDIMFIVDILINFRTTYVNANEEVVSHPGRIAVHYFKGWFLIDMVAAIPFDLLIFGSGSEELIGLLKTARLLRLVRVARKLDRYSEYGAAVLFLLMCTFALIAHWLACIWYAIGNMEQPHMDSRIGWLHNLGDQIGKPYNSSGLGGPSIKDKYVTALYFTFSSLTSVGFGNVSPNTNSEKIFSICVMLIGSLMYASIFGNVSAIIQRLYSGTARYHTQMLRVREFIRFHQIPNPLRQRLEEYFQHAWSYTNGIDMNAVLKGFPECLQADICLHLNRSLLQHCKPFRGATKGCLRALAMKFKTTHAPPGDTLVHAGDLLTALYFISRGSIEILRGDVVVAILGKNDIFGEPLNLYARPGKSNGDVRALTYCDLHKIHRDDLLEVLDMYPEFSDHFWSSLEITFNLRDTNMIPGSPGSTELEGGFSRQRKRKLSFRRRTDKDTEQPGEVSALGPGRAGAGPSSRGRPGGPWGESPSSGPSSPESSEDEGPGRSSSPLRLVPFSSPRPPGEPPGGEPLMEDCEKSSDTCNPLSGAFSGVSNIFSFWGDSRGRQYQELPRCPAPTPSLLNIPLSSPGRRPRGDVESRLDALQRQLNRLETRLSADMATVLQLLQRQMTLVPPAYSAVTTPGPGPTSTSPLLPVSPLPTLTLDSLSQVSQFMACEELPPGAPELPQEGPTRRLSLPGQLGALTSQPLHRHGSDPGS

[12] = Clearance in Han Wistar rat at 4 umol/kg, iv and 5 umol/kg, po; format: ADME, organism-based; settings: in vivo
[13] = Oral bioavailability in Han Wistar rat at 5 umol/kg; format: ADME, organism-based; settings: in vivo
[14] = Fraction unbound in human plasma by equilibrium dialysis method; format: ADME, cell-free
[15] = Volume of distribution at steady state in beagle dog at 2 umol/kg, iv and 10 umol/kg, po; format: ADME, organism-based, Canis lupus familiaris; settings: in vivo, read-out: Vdss
[16] = Volume of distribution at steady state in Han Wistar rat at 4 umol/kg, iv and 5 umol/kg, po; format: ADME, organism-based; settings: in vivo, read-out: Vdss
[17] = Volume of distribution at steady state in Han Wistar rat at 20 umol/kg, iv and 50 umol/kg, po; format: ADME, organism-based; settings: in vivo, read-out: Vdss
[18] = Oral bioavailability in Han Wistar rat at 50 umol/kg; format: ADME, organism-based; settings: in vivo
[19] = Clearance in Han Wistar rat at 20 umol/kg, iv and 50 umol/kg, po; format: ADME, organism-based; settings: in vivo
[20] = Volume of distribution at steady state in Han Wistar rat at 3 umol/kg, iv and 10 umol/kg, po; format: ADME, organism-based; settings: in vivo, read-out: Vdss
[21] = Clearance in Han Wistar rat at 3 umol/kg, iv and 10 umol/kg, po; format: ADME, organism-based; settings: in vivo
[22] = Oral bioavailability in Han Wistar rat at 10 umol/kg; format: ADME, organism-based; settings: in vivo

| SMILES | hepatocyte CLint [3] | IC50 (Androgen receptor [4]) | solubility thermodynamic at 24 h (physchem) | fraction unbound [8] | logD [9] | IC50 [11] | fraction unbound [14] | further results |
| --- | --- | --- | --- | --- | --- | --- | --- | --- |
| CC(O)(CS(=O)(=O)c1ccc(F)cc1)C(=O)Nc1ccc(C#N)c(C(F)(F)F)c1 (centres undefined) |  |  |  |  |  |  |  | growth inhibition (GI) (Rattus norvegicus [1]): Active |
| CC(=O)N1CCN(CCOc2ccc(C3CCN(C4=Nn5c(nnc5C(F)(F)F)CC4)CC3)cc2)CC1 [AZD3514] | < 3 µL/min/1e6 cells | 1.78 µM | 577 µM (≈ 300 µg/mL) | 0.094 | 2.5 | > 100 µM | 0.12 | bioavailability [2]: > 75%; clearance [5]: 12 mL/min/kg; Ki (Androgen receptor [6]): 5 µM; growth inhibition (GI) (Rattus norvegicus [7]): Active; Ki (Androgen receptor [10]): 2.2 µM; clearance [12]: 6.6 mL/min/kg; bioavailability [13]: 74%; Vd [15]: 3.2 L/kg; Vd [16]: 2.1 L/kg |
| CC(=O)N1CCN(CCOc2ccc(C3(O)CCN(c4ccc5nnc(C(F)(F)F)n5n4)CC3)cc2)CC1 |  |  | 190 µM (≈ 101 µg/mL) | 0.064 | 2.2 | > 100 µM | 0.17 |  |
| Fc1cccc(CN2CCN(c3ccc4nnc(C(F)(F)F)n4n3)CC2)c1F | 22 µL/min/1e6 cells | 2.09 µM |  | 0.018 |  | > 100 µM | 0.017 |  |
| OC1(c2cccnc2)CCN(c2ccc3nnc(C(F)(F)F)n3n2)CC1 | < 3 µL/min/1e6 cells | 10.7 µM | 100 µM (≈ 36.4 µg/mL) | 0.34 | 2.1 | 95.5 µM | 0.26 | bioavailability [2]: > 75%; Vd [17]: 5.7 L/kg; clearance [5]: 18 mL/min/kg; bioavailability [18]: > 75%; growth inhibition (GI) (Rattus norvegicus [7]): Active; clearance [19]: 38 mL/min/kg; Vd [15]: 1.3 L/kg |
| CC(=O)N1CCN(CCOc2ccc(C3CCN(c4ccc5nnc(C(F)(F)F)n5n4)CC3)cc2)CC1 | 12 µL/min/1e6 cells | 0.324 µM |  | 0.012 |  | 11.2 µM | 0.027 |  |
| OC1(c2ccc(F)cc2)CCN(c2ccc3nnc(C(F)(F)F)n3n2)CC1 | < 3 µL/min/1e6 cells |  |  | 0.036 |  |  | 0.04 |  |
| N#Cc1ccc(CN2CCN(c3ccc4nnc(C(F)(F)F)n4n3)CC2)cc1 | < 3 µL/min/1e6 cells | 1.51 µM | 8.4 µM (≈ 3.25 µg/mL) | 0.092 | 2.9 |  | 0.044 |  |
| Fc1ccc(CN2CCN(c3ccc4nnc(C(F)(F)F)n4n3)CC2)cc1 | 52 µL/min/1e6 cells |  |  | 0.034 |  |  | 0.02 |  |
| Fc1ccc(CN2CCN(C3=Nn4c(nnc4C(F)(F)F)CC3)CC2)cc1 | 3.7 µL/min/1e6 cells | 5.89 µM | 520 µM (≈ 199 µg/mL) | 0.13 | 2.8 | 29.5 µM | 0.12 |  |
| Cn1nccc1CCOc1ccc(C2CCN(c3ccc4nnc(C(F)(F)F)n4n3)CC2)cc1 | 12 µL/min/1e6 cells | 0.234 µM | < 0.73 µM | 0.0021 | > 4.3 | 17.8 µM | 0.0016 | bioavailability [2]: 18%; Vd [20]: 2.3 L/kg; clearance [21]: 22 mL/min/kg; clearance [5]: 9.2 mL/min/kg; growth inhibition (GI) (Rattus norvegicus [7]): Active; Vd [15]: 2.7 L/kg; bioavailability [22]: 43% |

Reference: ChEMBL document CHEMBL2346572, “Discovery of AZD3514, a small-molecule androgen receptor downregulator for treatment of advanced prostate cancer” (Bioorg Med Chem Lett, 2013)
